In PubChem BioAssay (NCI):
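Cultured in 96-well plates, cells were exposed to test compound for 48 hours across five concentrations. TGI: total growth inhibition.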

What was measured:
Test in all cases: inhibition of tumour cell growth, NCI panel, 48 h
[1] = tested on: OVCAR-5 ovarian
[2] = tested on: NCI-H522 lung
[3] = tested on: KM12 colon
[4] = tested on: M14 melanoma
[5] = tested on: COLO 205 colon
[6] = tested on: DLD-1 colon
[7] = tested on: ACHN renal
[8] = tested on: UO-31 renal
[9] = tested on: RXF-631 renal
[10] = tested on: SK-MEL-2 melanoma
[11] = tested on: HCT-116 colon
[12] = tested on: M19-MEL melanoma
[13] = tested on: SF-268 CNS
[14] = tested on: SR leukemia
[15] = tested on: IGROV1 ovarian
[16] = tested on: OVCAR-8 ovarian
[17] = tested on: HCT-15 colon
[18] = tested on: SK-OV-3 ovarian
[19] = tested on: UACC-257 melanoma
[20] = tested on: KM20L2 colon
[21] = tested on: XF 498 CNS
[22] = tested on: HOP-62 NSCLC
[23] = tested on: RPMI-8226 leukemia
[24] = tested on: HT29 colon
[25] = tested on: OVCAR-4 ovarian
[26] = tested on: DMS 114 small cell lung
[27] = tested on: CAKI-1 renal
[28] = tested on: MOLT-4 leukemia
[29] = tested on: SF-295 CNS
[30] = tested on: HL-60(TB) leukemia
[31] = tested on: SNB-75 CNS
[32] = tested on: SF-539 CNS
[33] = tested on: NCI-H226 lung
[34] = tested on: SW-620 colon
[35] = tested on: A549 NSCLC
[36] = tested on: A498 renal
[37] = tested on: NCI-H460 lung
[38] = tested on: OVCAR-3 ovarian
[39] = tested on: SN12C renal
[40] = tested on: EKVX NSCLC
[41] = tested on: MALME-3M melanoma
[42] = tested on: LXFL 529 NSCLC
[43] = tested on: HOP-18 NSCLC
[44] = tested on: UACC-62 melanoma
[45] = tested on: SNB-78 CNS
[46] = tested on: SNB-19 CNS
[47] = tested on: CCRF-CEM leukemia
[48] = tested on: LOX IMVI melanoma
[49] = tested on: SK-MEL-28 melanoma
[50] = tested on: U251 CNS
[51] = tested on: HCC-2998 colon

Measured: TGI

N#CNC(=NCCO)NCCO
> 100 µM: all assays above
